Key:
Assay in all cases: Kinase Profiling (KINOMEscan)
Format in all cases: binding
[1] = molecular target: 456 kinases (of these 395 non-mutant kinases) (Homo sapiens, UniProt P21127); settings: CDC2L1; 10 μM
[2] = molecular target: 456 kinases (of these 395 non-mutant kinases) (Homo sapiens, UniProt Q00526); settings: CDK3; 10 μM
[3] = molecular target: 456 kinases (of these 395 non-mutant kinases) (Homo sapiens, UniProt Q8IWQ3); settings: BRSK2; 10 μM
[4] = molecular target: 456 kinases (of these 395 non-mutant kinases) (Homo sapiens, UniProt Q9BWU1); settings: CDK11; 10 μM
[5] = molecular target: 456 kinases (of these 395 non-mutant kinases) (Homo sapiens, UniProt Q9NRP7); settings: STK36; 10 μM
[6] = molecular target: 456 kinases (of these 395 non-mutant kinases) (Homo sapiens, UniProt P17948); settings: FLT1; 10 μM
Sequence of 456 kinases (of these 395 non-mutant kinases) (Homo sapiens, UniProt P17948) (P17948 27-1338 limits assumed, stated change not applied): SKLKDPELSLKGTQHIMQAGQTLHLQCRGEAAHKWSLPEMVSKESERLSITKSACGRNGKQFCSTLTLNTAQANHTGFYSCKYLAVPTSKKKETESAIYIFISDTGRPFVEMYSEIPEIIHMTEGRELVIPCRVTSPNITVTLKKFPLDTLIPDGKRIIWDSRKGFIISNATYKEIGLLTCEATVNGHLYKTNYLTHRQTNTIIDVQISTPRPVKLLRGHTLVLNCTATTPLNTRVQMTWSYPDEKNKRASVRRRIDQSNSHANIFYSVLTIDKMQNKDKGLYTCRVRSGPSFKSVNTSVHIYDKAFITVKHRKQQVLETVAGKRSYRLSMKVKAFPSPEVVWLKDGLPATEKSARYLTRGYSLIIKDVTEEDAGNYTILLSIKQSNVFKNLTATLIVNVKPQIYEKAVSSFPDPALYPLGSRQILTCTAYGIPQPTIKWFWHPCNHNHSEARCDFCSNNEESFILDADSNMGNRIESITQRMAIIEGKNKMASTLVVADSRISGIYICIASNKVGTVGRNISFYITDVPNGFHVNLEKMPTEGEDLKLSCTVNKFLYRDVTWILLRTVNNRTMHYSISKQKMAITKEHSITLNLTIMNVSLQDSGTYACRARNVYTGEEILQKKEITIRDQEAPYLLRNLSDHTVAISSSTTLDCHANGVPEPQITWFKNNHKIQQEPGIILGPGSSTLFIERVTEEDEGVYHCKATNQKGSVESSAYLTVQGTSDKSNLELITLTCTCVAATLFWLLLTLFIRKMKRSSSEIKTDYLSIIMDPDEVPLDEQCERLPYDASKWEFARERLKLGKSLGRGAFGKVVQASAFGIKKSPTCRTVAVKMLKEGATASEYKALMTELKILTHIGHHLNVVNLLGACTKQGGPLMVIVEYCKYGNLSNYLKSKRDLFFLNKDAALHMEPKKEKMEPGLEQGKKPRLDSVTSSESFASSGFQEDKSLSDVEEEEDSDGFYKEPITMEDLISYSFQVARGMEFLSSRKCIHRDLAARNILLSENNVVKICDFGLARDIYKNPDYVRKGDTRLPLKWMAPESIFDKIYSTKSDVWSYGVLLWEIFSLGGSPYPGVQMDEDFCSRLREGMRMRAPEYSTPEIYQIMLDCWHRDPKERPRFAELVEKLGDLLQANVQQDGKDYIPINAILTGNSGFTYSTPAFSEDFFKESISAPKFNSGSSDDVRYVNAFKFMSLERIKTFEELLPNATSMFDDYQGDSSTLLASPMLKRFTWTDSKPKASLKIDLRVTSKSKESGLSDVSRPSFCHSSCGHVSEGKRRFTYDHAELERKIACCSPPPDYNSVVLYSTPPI

[7] = molecular target: 456 kinases (of these 395 non-mutant kinases) (Homo sapiens, UniProt P00519, F317I); settings: 10 μM
[8] = molecular target: 456 kinases (of these 395 non-mutant kinases) (Homo sapiens, UniProt P00533, L858R); settings: EGFR(L858R); 10 μM
[9] = molecular target: 456 kinases (of these 395 non-mutant kinases) (Homo sapiens, UniProt P08631); settings: HCK; 10 μM
Sequence of 456 kinases (of these 395 non-mutant kinases) (Homo sapiens, UniProt P08631) (P08631 2-526 limits assumed, change not shown): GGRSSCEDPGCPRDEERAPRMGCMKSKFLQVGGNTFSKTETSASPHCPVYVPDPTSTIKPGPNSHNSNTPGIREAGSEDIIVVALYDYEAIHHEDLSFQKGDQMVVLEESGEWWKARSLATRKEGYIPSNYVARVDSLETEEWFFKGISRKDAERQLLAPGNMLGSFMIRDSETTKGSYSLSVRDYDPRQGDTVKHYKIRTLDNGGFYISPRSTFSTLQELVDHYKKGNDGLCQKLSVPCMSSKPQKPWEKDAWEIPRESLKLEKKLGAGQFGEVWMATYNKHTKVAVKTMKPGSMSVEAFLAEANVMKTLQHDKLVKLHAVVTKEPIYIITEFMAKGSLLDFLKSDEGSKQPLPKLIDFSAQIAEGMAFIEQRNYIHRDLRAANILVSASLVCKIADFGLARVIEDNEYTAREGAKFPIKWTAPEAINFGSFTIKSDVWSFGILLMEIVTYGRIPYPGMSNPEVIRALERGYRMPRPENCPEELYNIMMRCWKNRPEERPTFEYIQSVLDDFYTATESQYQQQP

[10] = molecular target: 456 kinases (of these 395 non-mutant kinases) (Homo sapiens, UniProt Q99759); settings: MAP3K3; 10 μM
[11] = molecular target: 456 kinases (of these 395 non-mutant kinases) (Homo sapiens, UniProt P42336, E545K); settings: PIK3CA(E545K); 10 μM
[12] = molecular target: 456 kinases (of these 395 non-mutant kinases) (Homo sapiens, UniProt P57058); settings: HUNK; 10 μM
[13] = molecular target: 456 kinases (of these 395 non-mutant kinases) (Homo sapiens, UniProt Q52WX2); settings: SBK1; 10 μM
[14] = molecular target: 456 kinases (of these 395 non-mutant kinases) (Homo sapiens, UniProt P10721, V559D); settings: KIT(V559D); 10 μM
Sequence of 456 kinases (of these 395 non-mutant kinases) (Homo sapiens, UniProt P10721, V559D) (P10721 26-976 V559D limits assumed): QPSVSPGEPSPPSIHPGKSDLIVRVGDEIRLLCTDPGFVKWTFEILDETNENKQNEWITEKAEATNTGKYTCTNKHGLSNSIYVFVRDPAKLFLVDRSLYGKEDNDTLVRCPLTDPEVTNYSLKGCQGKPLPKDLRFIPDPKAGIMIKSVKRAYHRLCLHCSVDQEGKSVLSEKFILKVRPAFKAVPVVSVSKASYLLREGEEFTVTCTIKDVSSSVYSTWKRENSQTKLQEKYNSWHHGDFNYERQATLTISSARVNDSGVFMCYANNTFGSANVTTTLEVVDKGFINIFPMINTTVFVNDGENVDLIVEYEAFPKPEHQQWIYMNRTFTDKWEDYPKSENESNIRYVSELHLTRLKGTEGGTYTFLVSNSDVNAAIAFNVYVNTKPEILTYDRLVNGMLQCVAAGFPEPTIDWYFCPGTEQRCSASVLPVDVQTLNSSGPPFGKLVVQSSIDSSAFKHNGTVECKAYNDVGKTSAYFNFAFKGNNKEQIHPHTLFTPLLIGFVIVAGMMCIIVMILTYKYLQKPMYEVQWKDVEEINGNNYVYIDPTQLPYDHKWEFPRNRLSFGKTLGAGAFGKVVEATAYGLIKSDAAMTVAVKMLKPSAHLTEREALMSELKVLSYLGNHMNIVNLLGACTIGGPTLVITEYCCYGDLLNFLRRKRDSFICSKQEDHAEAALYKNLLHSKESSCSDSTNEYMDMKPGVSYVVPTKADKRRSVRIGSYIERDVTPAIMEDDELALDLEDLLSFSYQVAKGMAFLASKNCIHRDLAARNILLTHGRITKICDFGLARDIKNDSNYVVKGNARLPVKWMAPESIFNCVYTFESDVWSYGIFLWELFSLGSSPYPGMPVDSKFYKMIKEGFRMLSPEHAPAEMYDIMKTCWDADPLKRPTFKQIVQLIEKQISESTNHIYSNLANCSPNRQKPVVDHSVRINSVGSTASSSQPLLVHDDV

[15] = molecular target: 456 kinases (of these 395 non-mutant kinases) (Homo sapiens, UniProt P43403); settings: ZAP70; 10 μM
[16] = molecular target: 456 kinases (of these 395 non-mutant kinases) (Homo sapiens, UniProt P29376); settings: LTK; 10 μM
Sequence of 456 kinases (of these 395 non-mutant kinases) (Homo sapiens, UniProt P29376) (P29376 17-864 limits assumed, change not shown): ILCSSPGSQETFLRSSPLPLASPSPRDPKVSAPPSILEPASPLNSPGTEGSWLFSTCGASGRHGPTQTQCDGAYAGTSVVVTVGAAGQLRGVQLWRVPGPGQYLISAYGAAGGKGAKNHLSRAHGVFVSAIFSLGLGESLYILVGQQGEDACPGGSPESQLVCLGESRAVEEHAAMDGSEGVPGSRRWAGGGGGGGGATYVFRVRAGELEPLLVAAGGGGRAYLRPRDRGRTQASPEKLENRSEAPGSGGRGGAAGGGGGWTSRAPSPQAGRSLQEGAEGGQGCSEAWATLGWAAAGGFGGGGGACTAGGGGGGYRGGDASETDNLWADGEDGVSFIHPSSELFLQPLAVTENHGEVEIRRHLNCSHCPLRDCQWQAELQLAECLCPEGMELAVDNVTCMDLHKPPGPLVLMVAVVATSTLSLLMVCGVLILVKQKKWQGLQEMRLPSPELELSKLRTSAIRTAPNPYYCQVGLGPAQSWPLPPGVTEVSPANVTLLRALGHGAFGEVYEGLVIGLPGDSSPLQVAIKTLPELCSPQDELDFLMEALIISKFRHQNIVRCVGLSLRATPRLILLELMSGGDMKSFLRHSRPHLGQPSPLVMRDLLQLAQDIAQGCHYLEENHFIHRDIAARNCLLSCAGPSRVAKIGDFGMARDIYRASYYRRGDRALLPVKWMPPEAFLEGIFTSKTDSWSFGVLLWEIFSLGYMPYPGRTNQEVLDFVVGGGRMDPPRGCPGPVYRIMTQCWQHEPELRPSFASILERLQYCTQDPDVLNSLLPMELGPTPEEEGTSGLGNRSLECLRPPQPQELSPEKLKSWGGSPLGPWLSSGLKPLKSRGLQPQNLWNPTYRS

[17] = molecular target: 456 kinases (of these 395 non-mutant kinases) (Homo sapiens, UniProt Q8WU08); settings: YANK1; 10 μM
Sequence of 456 kinases (of these 395 non-mutant kinases) (Homo sapiens, UniProt Q8WU08) (Q8WU08 2-396 limits assumed, stated change not applied): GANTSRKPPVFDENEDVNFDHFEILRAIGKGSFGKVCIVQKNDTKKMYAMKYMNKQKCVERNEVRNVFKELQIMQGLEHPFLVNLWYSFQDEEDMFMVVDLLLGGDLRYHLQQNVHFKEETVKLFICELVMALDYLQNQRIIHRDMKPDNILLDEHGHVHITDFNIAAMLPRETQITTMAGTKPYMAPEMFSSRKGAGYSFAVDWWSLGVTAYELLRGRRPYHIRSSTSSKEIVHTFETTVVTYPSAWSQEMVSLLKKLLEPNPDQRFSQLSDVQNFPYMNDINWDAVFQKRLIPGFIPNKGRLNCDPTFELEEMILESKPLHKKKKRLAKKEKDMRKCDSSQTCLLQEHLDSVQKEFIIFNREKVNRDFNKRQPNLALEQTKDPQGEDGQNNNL

[18] = molecular target: 456 kinases (of these 395 non-mutant kinases) (Homo sapiens, UniProt P10721, L576P); settings: KIT(L576P); 10 μM
[19] = molecular target: 456 kinases (of these 395 non-mutant kinases) (Homo sapiens, UniProt Q9BQI3); settings: EIF2AK1; 10 μM
[20] = molecular target: 456 kinases (of these 395 non-mutant kinases) (Homo sapiens, UniProt P07947); settings: YES; 10 μM
Sequence of 456 kinases (of these 395 non-mutant kinases) (Homo sapiens, UniProt P07947) (P07947 2-543 limits assumed, change not shown): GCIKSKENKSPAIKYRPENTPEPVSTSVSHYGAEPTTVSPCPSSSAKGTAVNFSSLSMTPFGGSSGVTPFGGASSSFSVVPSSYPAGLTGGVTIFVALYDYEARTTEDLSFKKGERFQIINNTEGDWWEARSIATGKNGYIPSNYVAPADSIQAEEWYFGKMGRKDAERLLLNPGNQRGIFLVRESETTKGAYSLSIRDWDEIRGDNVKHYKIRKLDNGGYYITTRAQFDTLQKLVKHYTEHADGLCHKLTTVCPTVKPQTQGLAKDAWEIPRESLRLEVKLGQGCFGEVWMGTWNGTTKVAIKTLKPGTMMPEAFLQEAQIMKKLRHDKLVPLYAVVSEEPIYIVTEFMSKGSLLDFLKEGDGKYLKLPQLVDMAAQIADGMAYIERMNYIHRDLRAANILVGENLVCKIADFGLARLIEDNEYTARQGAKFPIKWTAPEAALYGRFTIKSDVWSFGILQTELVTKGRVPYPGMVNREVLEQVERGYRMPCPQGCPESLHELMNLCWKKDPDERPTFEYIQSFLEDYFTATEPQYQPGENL

[21] = molecular target: 456 kinases (of these 395 non-mutant kinases) (Homo sapiens, UniProt Q8N568); settings: DCAMKL2; 10 μM
[22] = molecular target: 456 kinases (of these 395 non-mutant kinases) (Homo sapiens, UniProt Q9Y2U5); settings: MAP3K2; 10 μM
[23] = molecular target: 456 kinases (of these 395 non-mutant kinases) (Homo sapiens, UniProt P28482); settings: ERK2; 10 μM
Sequence of 456 kinases (of these 395 non-mutant kinases) (Homo sapiens, UniProt P28482) (P28482 2-360 limits assumed, change not shown): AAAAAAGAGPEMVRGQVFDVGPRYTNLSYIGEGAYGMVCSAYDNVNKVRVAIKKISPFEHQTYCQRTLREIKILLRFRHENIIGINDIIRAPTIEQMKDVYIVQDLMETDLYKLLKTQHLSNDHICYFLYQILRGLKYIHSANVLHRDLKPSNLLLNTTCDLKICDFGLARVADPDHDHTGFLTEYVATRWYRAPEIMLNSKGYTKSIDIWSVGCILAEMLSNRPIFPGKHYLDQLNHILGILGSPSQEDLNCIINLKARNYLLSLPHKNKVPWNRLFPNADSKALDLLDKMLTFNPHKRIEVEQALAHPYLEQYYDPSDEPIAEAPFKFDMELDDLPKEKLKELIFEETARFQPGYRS

[24] = molecular target: 456 kinases (of these 395 non-mutant kinases) (Homo sapiens, UniProt Q8NFD2); settings: ANKK1; 10 μM
[25] = molecular target: 456 kinases (of these 395 non-mutant kinases) (Homo sapiens, UniProt P49336); settings: CDK8; 10 μM
[26] = molecular target: 456 kinases (of these 395 non-mutant kinases) (Homo sapiens, UniProt P51812); settings: 10 μM
[27] = molecular target: 456 kinases (of these 395 non-mutant kinases) (Homo sapiens, UniProt Q9BYP7); settings: WNK3; 10 μM
[28] = molecular target: 456 kinases (of these 395 non-mutant kinases) (Homo sapiens, UniProt Q9NRM7); settings: LATS2; 10 μM
[29] = molecular target: 456 kinases (of these 395 non-mutant kinases) (Homo sapiens, UniProt Q9H1R3); settings: MYLK2; 10 μM
[30] = molecular target: 456 kinases (of these 395 non-mutant kinases) (Homo sapiens, UniProt P78368); settings: CSNK1G2; 10 μM
[31] = molecular target: 456 kinases (of these 395 non-mutant kinases) (Homo sapiens, UniProt Q8TDR2); settings: STK35; 10 μM

## CCc1ccccc1NC(=O)c1c(C)nsc1Nc1cnc2cc(F)ccc2n1 [Example 20, N-(2-Ethylphenyl)-5-[(6-fluoroquinoxalin-2-yl)amino]-3-methyl-1,2-thiazole-4-carboxamide]
[1]
  % Ctrl @ 10 μM: 92 % Ctrl
[2]
  % Ctrl @ 10 μM: 100 % Ctrl
[3]
  % Ctrl @ 10 μM: 100 % Ctrl
[4]
  % Ctrl @ 10 μM: 100 % Ctrl
[5]
  % Ctrl @ 10 μM: 75 % Ctrl
[6]
  % Ctrl @ 10 μM: 74 % Ctrl
[7]; ABL1(F317I)-nonphosphorylated
  % Ctrl @ 10 μM: 100 % Ctrl
[7]; ABL1(F317I)-phosphorylated
  % Ctrl @ 10 μM: 86 % Ctrl
[8]
  % Ctrl @ 10 μM: 96 % Ctrl
[9]
  % Ctrl @ 10 μM: 59 % Ctrl
[10]
  % Ctrl @ 10 μM: 100 % Ctrl
[11]
  % Ctrl @ 10 μM: 84 % Ctrl
[12]
  % Ctrl @ 10 μM: 93 % Ctrl
[13]
  % Ctrl @ 10 μM: 91 % Ctrl
[14]
  % Ctrl @ 10 μM: 61 % Ctrl
[15]
  % Ctrl @ 10 μM: 88 % Ctrl
[16]
  % Ctrl @ 10 μM: 68 % Ctrl
[17]
  % Ctrl @ 10 μM: 100 % Ctrl
[18]
  % Ctrl @ 10 μM: 100 % Ctrl
[19]
  % Ctrl @ 10 μM: 100 % Ctrl
[20]
  % Ctrl @ 10 μM: 90 % Ctrl
[21]
  % Ctrl @ 10 μM: 98 % Ctrl
[22]
  % Ctrl @ 10 μM: 100 % Ctrl
[23]
  % Ctrl @ 10 μM: 96 % Ctrl
[24]
  % Ctrl @ 10 μM: 100 % Ctrl
[25]
  % Ctrl @ 10 μM: 100 % Ctrl
[26]; RSK2(Kin.Dom.1-N-terminal)
  % Ctrl @ 10 μM: 100 % Ctrl
[26]; RSK2(Kin.Dom.2-C-terminal)
  % Ctrl @ 10 μM: 100 % Ctrl
[27]
  % Ctrl @ 10 μM: 100 % Ctrl
[28]
  % Ctrl @ 10 μM: 94 % Ctrl
[29]
  % Ctrl @ 10 μM: 100 % Ctrl
[30]
  % Ctrl @ 10 μM: 95 % Ctrl
[31]
  % Ctrl @ 10 μM: 84 % Ctrl

Source: US9682995B2, “Amino-substituted isothiazoles” (BAYER PHARMA AKTIENGESELLSCHAFT, priority 2013, dated 2017)
